One test concerns the target T1, MefHα/DmgHβ (Aminobacter niigataensis, UniProt A0AAX7FLU4).
T1 construct: gene N7E70_023840; subunit-swapped heteromer of full-length subunits from two strains, co-expressed in E. coli; with Dimethylguanidine hydrolase subunit beta
T1 sequence (A0AAX7FLU4 20-376): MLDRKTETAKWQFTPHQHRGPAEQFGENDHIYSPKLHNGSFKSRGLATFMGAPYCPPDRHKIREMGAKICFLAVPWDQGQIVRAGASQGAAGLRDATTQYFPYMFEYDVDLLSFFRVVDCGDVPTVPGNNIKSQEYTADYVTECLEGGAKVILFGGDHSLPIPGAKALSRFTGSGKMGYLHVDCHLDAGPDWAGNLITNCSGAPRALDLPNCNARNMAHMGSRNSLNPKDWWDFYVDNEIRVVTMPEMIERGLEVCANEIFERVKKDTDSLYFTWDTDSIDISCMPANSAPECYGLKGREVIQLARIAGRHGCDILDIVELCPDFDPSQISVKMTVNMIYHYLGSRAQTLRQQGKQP
T1 sequence (A0ABR6L539 1-348 partner): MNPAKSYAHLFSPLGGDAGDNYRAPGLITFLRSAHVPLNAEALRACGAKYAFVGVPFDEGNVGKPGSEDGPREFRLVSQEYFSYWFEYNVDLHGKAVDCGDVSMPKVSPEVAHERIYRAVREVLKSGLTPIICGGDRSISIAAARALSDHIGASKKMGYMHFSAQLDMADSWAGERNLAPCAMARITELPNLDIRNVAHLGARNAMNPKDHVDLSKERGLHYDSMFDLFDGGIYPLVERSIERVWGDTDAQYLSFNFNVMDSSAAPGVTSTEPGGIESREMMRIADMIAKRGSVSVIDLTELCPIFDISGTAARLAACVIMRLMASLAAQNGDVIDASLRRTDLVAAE
In words: guanylurea production by LC-MS. It is filed as biochemical. The conditions noted are these: 2 mM substrate, Tris-HCl pH 8, 30 °C.

Test [1] has as its target 6x His-tagged metformin hydrolase α subunit of Aminobacter niigataensis MD1 (Aminobacter niigataensis MD1). In words: crystal structure; 6x His-AnMefH complex, 13.3 mg/ml; crystals from 20% PEG 3350, 100 mM Bis Tris Propane-HCl pH 6.5, 200 mM NaF, 18 °C; soaked with urea.

2 compounds from PMC11399263 (Nature Communications, 2024) can be followed below.

As to `CN(C)C(=N)NC(=N)N` [metformin], the “guanylurea production by LC-MS” value on MefHα/DmgHβ is “MefHα/DmgHβ preferentially hydrolyzed metformin”. On to “metformin hydrolase β subunit of Aminobacter niigataensis MD1, untagged (natural protein)”, for which the stoichiometry N (MefHβ per MefHα) in test [1] is 2.
